Experimental data taken from PMC11387234, “Identification of novel inhibitors of the transcriptional coactivator MRTF-A for HCC therapy” (Molecular Therapy Oncology, 2024).
Values belong to the molecule of their own block, whether it stands above or below them.

Assays:
TRPM7 = TRPM7 (Mus musculus, UniProt Q923J1); assay: Aequorin-based Ca2+ influx assay for TRPM7 inhibition; assay type: cell-based; conditions: for Hill slopes for TRPM7 inhibition: Ca2+ influx assay, logistic equation fits, n = 3; for TRPM7 affinity compared to NS: relative to NS8593 (Figure 1C)
Procedure: HEK293T cells were transfected with 2 μg TRPM7 plasmid DNA and 0.1 μg pG5A plasmid DNA. After 24 h, the cells were washed with Mg^2+-free HEPES-buffered saline (HBS) containing 140 mM NaCl, 5.4 mM KCl, 0.5 mM CaCl2, 5 mM HEPES (pH 7.4), and 10 mM glucose and resuspended in Mg^2+-free HBS. After 30 min of incubation with 5 μM coelenterazine (Biaffin) at room temperature to reconstitute the aequorin, cells were washed two times by centrifugation at 2,000 rpm for 5 min (Heraeus Pico 17 microcentrifuge, Thermo Fisher Scientific). Then, they were resuspended in Mg^2+-free HBS and plated into 96-well plates. Luminescence was detected at room temperature using a CLARIOstar microplate reader (BMG Labtech). CaCl2-containing Mg^2+-free HBS was injected in the presence or absence of the inhibitors to increase the extracellular Ca^2+ concentration to 5 mM. Cell lysis with 0.1% (v/v) Triton X-100 in the Mg^2+-free HBS was used to terminate the experiment, and total bioluminescence was measured. The analysis of the bioluminescence rates (counts/s) was done in 1-s intervals and calibrated as [Ca^2+]i values using the following equation: p[Ca^2+]i=0,332588(−log(k))+5,5593 k represents the rate of aequorin consumption.
The following equation was used to determine the IC50 values of the inhibitors: E(c)=Emin+[…]/1+c^h/IC50^h
E(c) is the functional effect at the concentration c of the inhibitor, Emin is the minimal effect, Emax is the maximal effect, IC50 is the concentration of the inhibitor that produces the half-maximal effect, and h is the Hill coefficient. GraphPad Prism 8.4.0 was used for fitting.

SRF = SRF reporter gene (5×SRE-luciferase) assay; assay type: cell-based; conditions: HuH7 cells, 24 h; for SRF activity (5×SRE-luciferase): 30 μM; for Reduction in SRF activity: 5 μM
Procedure: HuH7 cells were seeded in a 12-well plate and transiently transfected with 0.25 μg 5×SRE and 0.15 μg Renilla luciferase simian virus 40 (SV40) promoter reporter as an internal control. The next day, cells were treated with inhibitors, as indicated in the figure legends, and the Dual-Luciferase Reporter Assay System (Promega, Madison, Wisconsin, USA) and the BioFix Lumi-10 (Macherey-Nagel, Düren, Germany) were used. The firefly luciferase activity was normalized to the Renilla luciferase activity to compensate for divergent transfection efficiencies.

HuH7 cells [1] = assay: Matrigel invasion assay; assay type: cell-based; conditions: 20 h
Procedure: The cell invasion assay was performed using Corning BioCoat Matrigel Invasion Chambers (Corning, Tewksbury, MA, USA) according to the manufacturer’s instructions. 2.5 × 10^4 cells per well were seeded and incubated for 20 h at 37°C. The invaded cells were fixed with methanol, stained with crystal violet, and counted under a light microscope (Carl Zeiss, Oberkochen, Germany).

HuH7 cells [2] = assay: SA-β-Gal staining (cellular senescence) in HuH7 cells; assay type: cell-based; conditions: for Concentration that significantly increases SA-β-Gal-positive cells (senescence induction): HuH7 cells
Procedure: (§1) Cellular senescence of treated cells was determined using the Senescence-β-galactosidase staining kit according to the manufacturer’s instructions (Cell Signaling Technology, Danvers, MA, USA). 300 cells were counted. The ratio stained to unstained cells were used to calculate the percentage of SA-β-gal-positive cells.

RhoA-TRPM7 interaction = target: T1, RhoA-TRPM7 interaction (Homo sapiens, UniProt Q96QT4); assay: In situ proximity ligation assay for endogenous TRPM7 and RhoA; assay type: cell-based; conditions: HuH7 cells, 6 h
T1 construct: proximity ligation assay (PLA) for endogenous TRPM7 and RhoA in HuH7 cells; endogenous in cells; host or cells: HuH7
Procedure: The DuoLink In situ Red Starter Kit Mouse/Rabbit (Sigma-Aldrich, Merck) was used according to the manufacturer’s protocol for DuoLink In Situ Solutions (Sigma-Aldrich, Merck). Anti-TRPM7/TRPM6 (Abcam, Cambridge, UK), anti-RhoA (NewEast Bioscience, Malvern, PA, USA), anti-MRTF-A (Santa Cruz Biotechnology, Santa Cruz, CA, USA), and anti-Filamin A (Thermo Fisher Scientific, Schwerte, Germany) antibodies were used as primary antibodies for incubation (Table S4). Images were recorded with a fluorescence microscope (Nikon, Düsseldorf, Germany).

MRTF-A = assay: Immunofluorescence of MRTF-A nuclear localization; assay type: cell-based; conditions: for MRTF-A nuclear localization reduced to: HuH7 and HuH6 cells (Figures 3B and S3A)
Procedure: Cells were fixated by a 10-min incubation with 4% paraformaldehyde in PBS. To permeabilize the cells, 0.2% Triton X-100 in PBS was used. Blocking was done with 1% BSA in PBS for 30 min at 37°C, followed by incubation with the respective primary antibodies (Table S4) for 1 h at room temperature and the secondary Alexa Fluor 488-coupled antibody (Invitrogen) (Table S5). The nucleus was stained with DAPI (Sigma-Aldrich). Images were taken using a fluorescence microscope (Nikon).

SK3 channels = test system: SK3 channels; design: method as in Sørensen et al. 22; conditions: relative to NS8593 (Figure 1C); ref Sørensen et al. 22; cited from earlier work
TGF-β1 = assay: Immunoblotting for TGF-β1; assay type: cell-based; conditions: HuH7 cells, 5 μM
Procedure: (§2) Proteins were denatured by boiling in Laemmli buffer at 95°C. According to their molecular weight, the proteins were separated by SDS-PAGE for 2 h at 100 V using the Bio-Rad Western Blot System (Bio-Rad, Hercules, California, USA) and the power supply peQPOWER 300 (Peqlab Biotechnology, Erlangen, Germany). The proteins were then transferred onto a polyvinylidene fluoride membrane (Merck, Darmstadt, Germany), which was activated in 100% methanol and equilibrated in a transfer buffer. The transfer was done at 350 mA for approximately 2 h. To avoid non-specific protein binding, the membrane was blocked with 5% milk powder in TBS-T. Afterward, the membrane was incubated over night at 4°C with the primary (Table S2) and the respective secondary antibodies for 1 h at room temperature (Table S3). Both was done with gentle shaking. The proteins were detected via chemiluminescence in a luminescent imager (ChemiDoc Imaging System, Bio-Rad).

MRTF-A-GFP = assay: FLIP assay, nuclear export of MRTF-A-GFP; assay type: cell-based; conditions: HuH7 cells, 5 μM, compared to control cells
Procedure: HuH7 cells were plated on 35-mm cell culture dishes and transfected with 200 ng MRTF-A-GFP and 800 ng pEF-FLAG plasmid DNA by using JetPrime (Polyplus, Illkirch, France). After treatment of the cells with the respective inhibitor, cells were imaged at 37°C, 5% CO2 in an Okolab Bold Line Cage Incubator using a Carl Zeiss LSM 700 confocal microscope with Axio Imager M2 and W Plan-Apochromat 63×/1.0 dipping objective. The software ZEN 2012 was used. Imaging parameters were as follows: pinhole diameter 1, resolution 256 × 256, bit depth 12, speed 7, line average 1, and zoom 2. The cytoplasm was bleached continuously starting after 3 scans with 2-s intervals using 100% laser power (488 nm/10 mW), and the nuclear fluorescence was recorded. The pre-bleach values were set to 1.

HuH6 cells [3] = assay: SA-β-Gal staining (cellular senescence) in HuH6 cells; assay type: cell-based
Procedure: as §1

TSPAN5 = assay: Immunoblotting for TSPAN5; assay type: cell-based; conditions: HuH7 cells
Procedure: as §2

HuH7 cells [4] = assay: Cell proliferation assay (cell counting) in HuH7 cells; assay type: cell-based; conditions: for Inhibitory effects on HCC proliferation as compared to inhibitor 10: 10 μM, 5 days; for Concentration sufficient to cease HCC cell proliferation: titration 10, 7.5, 5, 2.5 μM
Procedure: (§3) Cells were seeded and counted every 24 h for 5 days by using a Neubauer counting chamber.

HuH6 cells [5] = assay: Cell proliferation assay (cell counting) in HuH6 cells; assay type: cell-based
Procedure: as §3

Sequence of TRPM7 (Q923J1 whole entry): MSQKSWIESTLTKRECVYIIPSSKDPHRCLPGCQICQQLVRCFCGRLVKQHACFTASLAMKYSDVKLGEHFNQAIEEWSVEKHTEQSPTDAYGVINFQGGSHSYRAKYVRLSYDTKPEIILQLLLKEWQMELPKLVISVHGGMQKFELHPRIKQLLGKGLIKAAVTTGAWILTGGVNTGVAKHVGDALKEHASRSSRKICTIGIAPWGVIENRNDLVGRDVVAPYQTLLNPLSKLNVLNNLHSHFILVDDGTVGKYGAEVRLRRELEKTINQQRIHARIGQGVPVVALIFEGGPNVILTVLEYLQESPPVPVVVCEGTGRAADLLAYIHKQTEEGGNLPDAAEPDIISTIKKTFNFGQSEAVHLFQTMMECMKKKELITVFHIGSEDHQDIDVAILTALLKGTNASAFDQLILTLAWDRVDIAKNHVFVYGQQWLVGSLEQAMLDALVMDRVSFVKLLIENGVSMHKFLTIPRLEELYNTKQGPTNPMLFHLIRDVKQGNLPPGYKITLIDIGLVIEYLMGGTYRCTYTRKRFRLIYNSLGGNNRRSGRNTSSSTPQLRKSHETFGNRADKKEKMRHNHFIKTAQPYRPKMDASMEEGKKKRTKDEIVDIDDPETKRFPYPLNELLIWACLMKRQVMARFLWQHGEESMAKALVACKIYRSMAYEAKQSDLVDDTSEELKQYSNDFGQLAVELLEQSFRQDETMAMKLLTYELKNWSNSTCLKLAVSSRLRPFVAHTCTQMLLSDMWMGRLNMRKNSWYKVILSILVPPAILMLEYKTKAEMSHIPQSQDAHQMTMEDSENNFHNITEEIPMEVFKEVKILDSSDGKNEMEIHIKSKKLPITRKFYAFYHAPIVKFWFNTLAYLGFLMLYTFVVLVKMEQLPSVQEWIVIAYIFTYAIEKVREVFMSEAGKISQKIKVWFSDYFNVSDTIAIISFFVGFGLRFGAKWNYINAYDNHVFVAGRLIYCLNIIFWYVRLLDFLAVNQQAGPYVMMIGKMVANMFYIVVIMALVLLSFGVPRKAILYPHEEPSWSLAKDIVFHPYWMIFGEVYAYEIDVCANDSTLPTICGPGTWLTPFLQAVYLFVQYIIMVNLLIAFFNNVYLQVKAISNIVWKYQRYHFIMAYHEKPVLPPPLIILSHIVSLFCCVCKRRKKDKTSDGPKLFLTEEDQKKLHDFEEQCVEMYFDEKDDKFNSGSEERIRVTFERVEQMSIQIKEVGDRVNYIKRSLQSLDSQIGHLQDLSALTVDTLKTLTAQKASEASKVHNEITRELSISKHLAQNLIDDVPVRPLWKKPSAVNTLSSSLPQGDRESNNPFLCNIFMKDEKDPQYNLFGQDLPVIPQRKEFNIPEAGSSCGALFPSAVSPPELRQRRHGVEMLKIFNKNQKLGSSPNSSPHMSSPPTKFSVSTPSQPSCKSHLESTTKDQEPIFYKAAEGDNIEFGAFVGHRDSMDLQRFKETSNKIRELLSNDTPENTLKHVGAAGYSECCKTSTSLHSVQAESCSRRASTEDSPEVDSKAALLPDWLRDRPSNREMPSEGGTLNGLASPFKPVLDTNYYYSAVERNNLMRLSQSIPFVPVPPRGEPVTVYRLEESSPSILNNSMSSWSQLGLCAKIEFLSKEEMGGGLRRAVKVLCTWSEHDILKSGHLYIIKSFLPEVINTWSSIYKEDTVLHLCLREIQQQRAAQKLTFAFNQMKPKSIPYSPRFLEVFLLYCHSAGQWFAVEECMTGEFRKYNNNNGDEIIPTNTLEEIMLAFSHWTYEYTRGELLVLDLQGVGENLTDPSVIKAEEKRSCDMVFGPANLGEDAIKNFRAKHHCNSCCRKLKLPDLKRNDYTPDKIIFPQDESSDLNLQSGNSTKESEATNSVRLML
T1 sequence (Q96QT4 whole entry): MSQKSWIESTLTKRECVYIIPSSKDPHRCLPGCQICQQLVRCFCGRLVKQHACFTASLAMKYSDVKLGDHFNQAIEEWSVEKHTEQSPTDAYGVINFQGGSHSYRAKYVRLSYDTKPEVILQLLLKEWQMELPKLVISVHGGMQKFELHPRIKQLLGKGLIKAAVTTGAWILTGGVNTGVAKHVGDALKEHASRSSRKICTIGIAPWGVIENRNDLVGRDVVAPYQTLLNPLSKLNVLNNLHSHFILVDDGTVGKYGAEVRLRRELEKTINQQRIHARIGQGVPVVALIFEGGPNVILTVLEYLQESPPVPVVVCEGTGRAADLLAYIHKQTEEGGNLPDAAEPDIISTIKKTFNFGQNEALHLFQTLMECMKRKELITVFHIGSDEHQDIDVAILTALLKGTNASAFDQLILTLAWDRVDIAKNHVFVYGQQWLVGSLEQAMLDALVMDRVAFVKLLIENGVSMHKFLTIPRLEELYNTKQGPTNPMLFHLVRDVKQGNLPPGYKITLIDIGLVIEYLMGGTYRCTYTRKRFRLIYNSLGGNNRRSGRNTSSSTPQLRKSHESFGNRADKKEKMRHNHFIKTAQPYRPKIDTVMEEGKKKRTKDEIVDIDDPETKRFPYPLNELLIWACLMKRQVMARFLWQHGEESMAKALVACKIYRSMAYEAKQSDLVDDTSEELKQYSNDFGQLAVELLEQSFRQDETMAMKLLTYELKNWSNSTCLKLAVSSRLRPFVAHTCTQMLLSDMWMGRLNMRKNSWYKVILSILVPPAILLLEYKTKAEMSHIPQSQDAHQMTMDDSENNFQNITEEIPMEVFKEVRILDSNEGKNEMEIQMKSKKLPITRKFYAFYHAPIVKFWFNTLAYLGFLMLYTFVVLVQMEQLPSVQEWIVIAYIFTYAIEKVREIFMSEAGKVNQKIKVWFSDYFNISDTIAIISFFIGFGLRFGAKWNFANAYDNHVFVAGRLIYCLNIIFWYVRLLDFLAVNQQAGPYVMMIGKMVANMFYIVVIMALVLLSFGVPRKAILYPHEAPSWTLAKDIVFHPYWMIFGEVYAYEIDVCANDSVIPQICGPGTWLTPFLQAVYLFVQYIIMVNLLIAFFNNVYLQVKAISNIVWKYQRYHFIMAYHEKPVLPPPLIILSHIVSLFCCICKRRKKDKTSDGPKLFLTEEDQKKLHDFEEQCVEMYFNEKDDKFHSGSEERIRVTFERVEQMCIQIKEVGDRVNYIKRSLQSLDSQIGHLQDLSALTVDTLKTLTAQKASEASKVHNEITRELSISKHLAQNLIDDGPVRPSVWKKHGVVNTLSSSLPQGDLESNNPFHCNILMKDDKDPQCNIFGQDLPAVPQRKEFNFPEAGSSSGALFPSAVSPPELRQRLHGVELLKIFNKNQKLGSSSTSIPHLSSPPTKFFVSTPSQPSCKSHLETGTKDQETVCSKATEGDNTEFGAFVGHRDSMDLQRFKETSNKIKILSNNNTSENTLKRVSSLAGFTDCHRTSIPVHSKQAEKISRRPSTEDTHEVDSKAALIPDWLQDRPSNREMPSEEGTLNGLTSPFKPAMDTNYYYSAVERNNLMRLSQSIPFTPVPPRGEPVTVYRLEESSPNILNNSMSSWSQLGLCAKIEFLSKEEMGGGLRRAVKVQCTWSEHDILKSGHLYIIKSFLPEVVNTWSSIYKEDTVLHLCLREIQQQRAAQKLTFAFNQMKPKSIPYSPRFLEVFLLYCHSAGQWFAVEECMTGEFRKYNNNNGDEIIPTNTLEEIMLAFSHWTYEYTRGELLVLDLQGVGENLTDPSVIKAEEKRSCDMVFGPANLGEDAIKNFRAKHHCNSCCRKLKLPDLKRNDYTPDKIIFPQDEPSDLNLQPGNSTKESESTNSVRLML

- Hill slopes for TRPM7 inhibition (TRPM7): -1.432
Structure (SMILES): c1ccc2c(c1)CCCC2Nc1nc2ccccc2[nH]1 (stereo not drawn) [NS8593, reference compound]

- Hill slopes for TRPM7 inhibition (TRPM7; rNS): -1.370
- TRPM7 affinity compared to NS (TRPM7): =NS
- SRF activity (5×SRE-luciferase) (SRF): strong decrease
- RhoA-TRPM7 interaction (PLA) (RhoA-TRPM7 interaction; 30 μM): inhibited RhoA-TRPM7 interaction
Structure (SMILES): c1ccc2c(c1)CCCC2Nc1nc2ccccc2[nH]1 (stereo not drawn) [compound 1]
- Penetration of HuH7 cells into Matrigel (HuH7 cells [1]; 30 μM): strongly impaired
- Concentration that significantly increases SA-β-Gal-positive cells (senescence induction) (HuH7 cells [2]): 20 µM
- inhibition at 30 µM (MRTF-A; Homo sapiens, Huh-7, HuH7 cells, 30 μM (Figure 3B)): 50%
- SK3 affinity compared to NS (SK3 channels): =NS

- Hill slopes for TRPM7 inhibition (TRPM7): -1.165
- TRPM7 affinity compared to NS (TRPM7): <NS
Structure (SMILES): Fc1ccc2c(c1)C(Nc1nc3ccccc3[nH]1)CCC2 (stereo not drawn) [compound 2]
- SK3 affinity compared to NS (SK3 channels): >NS

- Hill slopes for TRPM7 inhibition (TRPM7): -1.224
- TRPM7 affinity compared to NS (TRPM7): <NS
Structure (SMILES): COc1ccc2c(c1)C(Nc1nc3ccccc3[nH]1)CCC2 (stereo not drawn) [compound 3]
- SK3 affinity compared to NS (SK3 channels): =NS

- Hill slopes for TRPM7 inhibition (TRPM7): -1.123
- TRPM7 affinity compared to NS (TRPM7): <NS
Structure (SMILES): Cc1ccc2c(c1)C(Nc1nc3ccccc3[nH]1)CCC2 (stereo not drawn) [compound 4]
- SK3 affinity compared to NS (SK3 channels): >NS

- Hill slopes for TRPM7 inhibition (TRPM7): -1.448
- TRPM7 affinity compared to NS (TRPM7): >NS
- SRF activity (5×SRE-luciferase) (SRF): strong decrease
- RhoA-TRPM7 interaction (PLA) (RhoA-TRPM7 interaction; 5 μM): inhibited RhoA-TRPM7 interaction
Structure (SMILES): Clc1cccc2c1CCCC2Nc1nc2ccccc2[nH]1 (stereo not drawn) [compound 5]
- TGF-β1 expression (protein level) (TGF-β1): almost completely abolished
- Reduction in SRF activity (SRF): 60%
- Penetration of HuH7 cells into Matrigel (HuH7 cells [1]; 5 μM): strongly impaired
- MRTF-A-GFP fluorescence remaining in the nucleus after 80 s of bleaching (MRTF-A-GFP): less MRTF-A-GFP fluorescence remaining in the nucleus
- Concentration that significantly increases SA-β-Gal-positive cells (senescence induction) (HuH7 cells [2]): 5 µM
- Fold lower concentration than NS8593 for inducing OIS (HuH7 cells [2]; compared with NS8593): 6 fold
- Concentration that significantly increases SA-β-Gal-positive cells (senescence induction) (HuH6 cells [3]): 5 µM
- TSPAN5 expression (protein level) (TSPAN5; 5 μM): almost completely abolished
- MRTF-A nuclear localization reduced to (MRTF-A; 5 μM): 12%
- SK3 affinity compared to NS (SK3 channels): =NS
- Concentration at which HuH7 cell growth is already significantly reduced (HuH7 cells [4]; titration 2.5, 5, 7.5, 10 μM): 2.5 µM

- Hill slopes for TRPM7 inhibition (TRPM7): -1.292
- TRPM7 affinity compared to NS (TRPM7): =NS
Structure (SMILES): Clc1cc2c(cc1Cl)C(Nc1nc3ccccc3[nH]1)CCC2 (stereo not drawn) [compound 6]
- SK3 affinity compared to NS (SK3 channels): >NS

- Hill slopes for TRPM7 inhibition (TRPM7): -0.9579
- TRPM7 affinity compared to NS (TRPM7): <NS
Structure (SMILES): c1ccc2[nH]c(NC3CCCc4ccncc43)nc2c1 (stereo not drawn) [compound 7]
- Effect on cell proliferation (HuH6 cells [5]; 30 µM NS8593, 2, 3, 7, 8, 10 µM 4, 5, 6, 5 days): decreased cell proliferation only marginally
- SK3 affinity compared to NS (SK3 channels): <NS
- Effect on cell proliferation (HuH7 cells [4]; 30 μM NS, rNS, 2, 3, 7, 8, 10 μM 4, 5, 6, 5 days): decreased cell proliferation only marginally

- Hill slopes for TRPM7 inhibition (TRPM7): -1.210
- TRPM7 affinity compared to NS (TRPM7): <NS
- SRF activity (5×SRE-luciferase) (SRF): strong decrease
- RhoA-TRPM7 interaction (PLA) (RhoA-TRPM7 interaction; 30 μM): inhibited RhoA-TRPM7 interaction
Structure (SMILES): c1ccc2[nH]c(NC3CCCc4sccc43)nc2c1 (stereo not drawn) [compound 8]
- Reduction in SRF activity (SRF): 30%
- Penetration of HuH7 cells into Matrigel (HuH7 cells [1]; 30 μM): strongly impaired
- Concentration that significantly increases SA-β-Gal-positive cells (senescence induction) (HuH7 cells [2]): 20 µM
- Concentration required to significantly reduce TSPAN5 expression (TSPAN5): 20 µM
- MRTF-A nuclear localization reduced to (MRTF-A; 30 μM): 12%
- SK3 affinity compared to NS (SK3 channels): <NS

- SRF reporter gene activity (SRF; 10 μM): remained largely unchanged
Structure (SMILES): c1ccc(-c2ccccc2Nc2nc3ccccc3[nH]2)cc1 [compound 9]

Structure (SMILES): c1ccc(-c2cccc(Nc3nc4ccccc4[nH]3)c2)cc1 [compound 10]
- SRF activity decreased to (SRF; 10 μM): 25%
- Localization of endogenous MRTF-A (MRTF-A; HuH7 cells, 5 μM, 18 h): cytoplasmic

- SRF reporter gene activity (SRF; 10 μM): remained largely unchanged
Structure (SMILES): Fc1ccc(-c2ccccc2Nc2nc3ccccc3[nH]2)cc1 [compound 13]

Structure (SMILES): CC(C)c1ccc(-c2cccc(Nc3nc4ccccc4[nH]3)c2)cc1 [compound 14]
- Effect on cell proliferation (HuH6 cells [5]; 10 µM (Figure S5A)): proliferation arrest
- Concentration at which SRF activity is significantly reduced (SRF): 2.5 µM
- Effect on cell proliferation (HuH7 cells [4]; 10 μM (Figure 6C)): proliferation arrest
- Inhibitory effects on HCC proliferation as compared to inhibitor 10 (HuH7 cells [4]): significantly improved
- Concentration sufficient to cease HCC cell proliferation (HuH7 cells [4]): 2.5 µM

Structure (SMILES): Fc1cccc(-c2cccc(Nc3nc4ccccc4[nH]3)c2)c1 [compound 16]
- Effect on cell proliferation (HuH6 cells [5]; 10 µM (Figure S5A)): proliferation arrest
- Concentration at which SRF activity is significantly reduced (SRF): 2.5 µM
- Concentration that significantly increases SA-β-Gal-positive cells (senescence induction) (HuH7 cells [2]): 2.5 µM
- Effect on cell proliferation (HuH7 cells [4]; 10 μM (Figure 6C)): proliferation arrest
- Inhibitory effects on HCC proliferation as compared to inhibitor 10 (HuH7 cells [4]): significantly improved
- Concentration sufficient to cease HCC cell proliferation (HuH7 cells [4]): 2.5 µM
